{
  "source": "patent EP0164904B1",
  "about": "“Method of determining an infusion rate profile and infusion device” (THE UNIVERSITY OF MELBOURNE, priority 1984, dated 1985)",
  "key": {"[1]": {"assay": "Plasma Drug Efflux profile derived from actual infusion data (iterative infusion method, scaled to Lean Body Mass)", "format": "in vivo, human subjects", "conditions": "Figure 9, after three iterations", "excerpt": "Central to the approach used in this method is the development of a new concept in pharmacokinetics, the Plasma Drug Efflux. This concept simply stated is that at any instant, if the plasma concentration of a drug is neither rising nor falling, the rate of delivery of the drug to the circulation ie. the infusion rate, must equate to the rate at which the drug is being lost from the circulation. It is - unimportant whether the loss is by distribution, metabolism or excretion.\nThen if drug is administered by some arbitrary infusion scheme Q(t), the plasma concentration is C(t) and the rate of drug loss from the plasma may be called the Plasma Drug Efflux, Ep(t).\nIf the plasma drug concentration is constant so that the amount of drug is not changing then the instantaneous rate of drug influx to the plasma (the infusion rate), and the instantaneous concentration in the plasma may be used as an estimate of drug efflux from the plasma, is an estimate of i.e.: [drawing 1]\nThe efflux estimate may then be plotted against time, and will essentially describe a dosing-rate/concentration profile as a function of time which will result in a plateau concentration for all time. […]"}, "[2]": {"assay": "Infusion generated from the Efflux profile; arterial plasma concentration followed over the infusion period", "format": "in vivo, patient", "from_the_text": "Describing first the preferred method of defining a generalised infusion rate profile as applied to anaesthetic drugs, the method comprises the steps of: • (a) first determining the lean body mass (LBM) of a group of subjects. A convenient way of doing this in human subjects is to use the method described by Hallynck T.H. et al in \"Should clearance be normalized to body surface of to lean body mass?\" in British Journal of Clinical Pharmacology, p 523-526, Volume 11, (1981), who presented the following formulae:- Males: LBM = 1.10 x weight - 128 x (weight²/height²) Females: LBM = 1.07 x weight - 148 x (weight²/height²) • (b) Following administration of a suitable bolus dose of a desired drug to achieve unconsciousness, the drug is infused at an arbitrary but known rate throughout the infusion. […]"}, "[3]": {"conditions": "plasma concentration, cited from earlier work"}},
  "data": [
    {"molecule": "C=CCC1(C(C)C#CCC)C(=O)N=C(O)N(C)C1=O", "note": "(centres unmarked) [methohexitone]", "values": [
      {"measurement": "shape of the Plasma Drug Efflux profile", "setting": "[1]", "value": "bears little relationship to an exponential function, having two distinct humps"},
      {"measurement": "arterial plasma drug concentrations", "setting": "[2]; infusion by Efflux profile of Figure 9 in a typical patient (Figure 10), over a period of five hours", "value": "constant and desired arterial plasma drug concentrations"},
      {"measurement": "departures from the desired level", "setting": "[2]; infusion by Efflux profile, many patients", "value": "no material departures from the desired level in any patient"},
      {"measurement": "concentration likely to result in wakening of the patient", "setting": "[3]; fall to below", "value": "below 3 mg/l"},
      {"measurement": "concentration at which severe depression of the heart and breathing may occur", "setting": "[3]", "value": 10000, "unit": "ng/mL"}
    ]}
  ]
}
